In patent EP3408309B1 (priority 2016, dated 2017):

Tests used:
[1] = target: Influenza neuraminidase; conditions: competitive inhibitors, background statement; cited from earlier work
[2] = test system: X31; assay: Infection inhibition experiment with X31 in BALB/c mice; format: in vivo; conditions: X31 pretreated with inhibitor, intranasal application; loss in body weight over 11 days
Procedure: Figure 7A and 7B show the results of an infection inhibition experiment with X31 in BALB/c mice. X31 was pretreated with inhibitor at the indicated concentrations, followed by intranasal application of the mixture to sedated mice.
In the experiments, the results of which are depicted in Figure 7A, the infection-related loss in body weight was daily controlled for 11 days. IPGSA 3 at 5 mM and 1 mM sialic acid concentrations was compared to infected/untreated, uninfected/untreated or infected/control treated (linPGOH 1) cases. The effect of a cytokine storm related loss in body weight was controled by using UV inactivated X31, which was not infectious, but still able to hemagglutinate as the untreated virus. Error bars indicate the standard error of the mean (n≥5).
Error bars indicate the standard error of the mean (n≥5).

[3] = test system: influenza A virus (X-31, H3N2); assay: Hemagglutination inhibition (HAI) assay; format: cell-based
[4] = test system: fluorescently labeled X31; assay: Microscale thermophoresis binding to whole virus particles; design: species or system influenza strain A/Aichi/2/68 H3N2; conditions: apparent dissociation constant, one site binding fit; read-out: Kdapp Particle
Text: The examined IPGSAs show one binding step. Binding constants are described as apparent dissociation constants (Kdapp) derived from a one site binding fit of each binding step. Error bars indicate the standard error of the mean (n≥3).

Row | Structure (SMILES) | IC50 values, enzyme inhibition [1] | infection inhibition in vivo [2] | Enhancement factor (β) ([3]; inhibition potency compared to monomeric α-2,6-sialyllactose) | Ki ([3]; sialic acid concentration, 4 HAU X31, lowest concentration for 100% inhibition, * = maximum tested concentration, read-out: Ki(HAI) SA) | Kd [4]
1 | CC(=O)N[C@H]1[C@H]([C@H](O)[C@H](O)CO)OC(C(=O)O)=C[C@@H]1N=C(N)N [Relenza, Zanamivir] | low | – | – | – | –
2 | CCOC(=O)C1=C[C@@H](OC(CC)CC)[C@H](NC(C)=O)[C@@H](N)C1 [Tamiflu, Oseltamivir] | low | not able to cause potent infection inhibition | – | – | –
3 | CC(=O)N[C@H]1[C@H]([C@H](O)[C@H](O)CO)O[C@@](OC[C@H]2O[C@@H](O[C@H]3[C@H](O)[C@@H](O)C(O)O[C@@H]3CO)[C@H](O)[C@@H](O)[C@H]2O)(C(=O)O)C[C@@H]1O (stereo partly drawn) [α-2,6-sialyllactose] | – | – | 1 | 48.1 ± 1.41 mM | 2.5 mM
